Consider four compounds from patent publication US11953435B2, “Zinc-responsive fluorophores” (Northwestern University, priority 2019, dated 2024).

SMILES strings stand for the structures. Entries after “also recorded” stand apart in the source; their conditions may differ.

The target in this series is BSA (Bos taurus, UniProt P02769). The series is described as follows: Interaction of ZincBY probes with proteins (BSA): emission, absorbance, polarization. It counts as binding. The settings on record: for interaction with BSA (in words) / fluorescence turn-on in response to zinc in the presence of BSA / emission maximum in the presence of BSA: 10 mg/mL BSA; for fluorescence turn-on in response to zinc in the presence of BSA: holo vs apo; for polarization: apo and holo forms. How it is done: Aqueous solutions were prepared by using de-ionized water with resistivity […], obtained using a Milli-Q water purification system. In order to properly compare the photophysical properties of ZincBY-2, ZincBY-3, and ZincBY-4 to ZincBY-1, the photophysical properties of ZincBY-1 we remeasured. Tested values differed from the previously published values (Ref. B2; incorporated by reference in its entirety). It was determined that copper was present in the aqueous buffer used for in vitro analysis of the previous samples. The corrected values are used herein, utilizing buffers that are copper-free. Stock solutions of ZincBY-1, ZincBY-2, ZincBY-3, and ZincBY-4 were prepared at concentrations of 5 mM and stored at −20° C. in aliquots that were used immediately after thawing for each experiment. Unless otherwise stated, all spectroscopic methods were conducted in aqueous buffer containing 50 mM HEPES (pH 7.2) and 0.1 M KNO3. UV-visible spectra were acquired on a PerkinElmer Lambda 650 UV/Vis spectrophotometer using quartz cuvettes from Starna (1 cm path length, 10 cm path length used in extinction coefficient and quantum yield determination). Fluorescence spectra were acquired using a PerkinElmer LS 55 fluorescence spectrophotometer. For measurements containing zinc, 99.0% ZnNO3 hexahydrate (final concentration 5 μM) was used. For experiments analyzing apo probes, N,N,N′,N′-Tetrakis(2-pyridylmethyl)ethylenediamine (TPEN) (final concentration 5 μM) was added to solution. Quantum Yield and Extinction Coefficient Determination. Quantum yields for apo and holo ZincBY-1, ZincBY-2, ZincBY-3, and ZincBY-4 were determined by plotting absorbance vs. fluorescence intensity of solutions containing ZincBY-1, ZincBY-2, ZincBY-3, or ZincBY-4 at probe concentrations ranging from 50-250 nM. Serial dilution was used to make solutions at different concentrations. Fluorescein dissolved in 0.1 N NaOH was used as the quantum yield standard, using a literature-determined quantum yield of 0.95.^3 For all fluorophore solutions, fluorescence excitation was set at 490 nm and fluorescence emission was integrated from 510 nm to 650 nm. Zinc Dissociation Constant. Fluorescence spectra were recorded using zinc probes (ZincBY-1, ZincBY-2, ZincBY-3, or ZincBY-4; 200 nM) and ZnSO4 (various concentrations). The solutions were equilibrated in the dark for 1 h prior to measurement. The concentration of ZnSO4 was varied from 1 μM to 9 mM in buffer solution (50 mM HEPES and 0.1 M KNO3, and pH 7.2) containing 10 mM EGTA. Free Zn^2+ was calculated according to a previously reported method (Ref. B4; incorporated by reference in its entirety). Data was fit to the following one-site binding equation: F=(FminKd+Fmax[Zn^2+])/(Kd+[Zn^2+]) pH Response. The fluorescence spectra of zinc probes (ZincBY-2, ZincBY-3, or ZincBY-4; 200 nM) wasere measured at various pH values (4.5-11). The following buffers were used at 50 mM concentration with 0.1 M KNO3: NaOAc/AcOH (pH 4.0-4.5), MES (pH 5.0-6.5), HEPES (pH 7.0-8.0), CHES (pH 8.5-9.5), CAPS (pH 10.0-11.0). Metal Ion Response. The fluorescence spectra of zinc probes (ZincBY-2, ZincBY-3, or ZincBY-4; 200 nM) were measured in the presence an excess of metal ion including 1 mM KNO3, 1 mM NaNO3, 1 mM CaSO4, 1 mM MgSO4, 15 μM MnSO4, 15 μM (NH4)2Fe(SO4)2, 15 μM NH4Fe(SO4)2, 15 μM CoSO4, 15 μM NiSO4, 15 μM CuSO4, 15 μM [Cu(CH3CN)4]PF6, 15 μM CdSO4, 15 μM Hg(NO3)2, 15 μM Pb(NO3)2, or 15 μM ZnSO4. The fluorescence spectra were compared to that of ZincBY-2 (200 nM), ZincBY-3 (200 nM), or ZincBY-4 (200 nM) in the presence of 10 μM TPEN. Determination of octanol-water partition coefficients (log P). A log P value for each probe was determined by agitating nanomolar solutions of each probe in a 1:1 mixture of HEPES buffer and 1-octanol. Solutions were allowed to settle for 1 h and then the fluorescence intensity of each phase was measured. Standard curves of the fluorescence of known concentrations of probes in both solutions were used to determine concentrations. […]
Sequence of BSA (P02769 25-607): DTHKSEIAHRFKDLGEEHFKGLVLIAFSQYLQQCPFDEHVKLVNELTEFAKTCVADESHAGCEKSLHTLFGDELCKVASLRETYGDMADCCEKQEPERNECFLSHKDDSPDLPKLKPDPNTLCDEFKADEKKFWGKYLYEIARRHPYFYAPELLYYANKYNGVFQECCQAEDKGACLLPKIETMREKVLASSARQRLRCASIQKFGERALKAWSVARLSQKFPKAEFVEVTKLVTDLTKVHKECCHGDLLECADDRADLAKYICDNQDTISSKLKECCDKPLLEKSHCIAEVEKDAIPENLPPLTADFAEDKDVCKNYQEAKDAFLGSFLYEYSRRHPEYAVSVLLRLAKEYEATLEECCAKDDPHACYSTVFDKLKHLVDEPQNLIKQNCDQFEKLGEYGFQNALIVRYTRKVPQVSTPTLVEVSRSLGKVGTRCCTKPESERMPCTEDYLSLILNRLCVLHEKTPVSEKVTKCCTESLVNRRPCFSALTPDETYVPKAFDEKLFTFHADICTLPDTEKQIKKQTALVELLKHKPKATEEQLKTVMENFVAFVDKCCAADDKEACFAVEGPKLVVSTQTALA

With `CC(=O)NCCOc1ccc2n1[B-](F)(F)[N+]1=C(N(CCN(Cc3ccccn3)Cc3ccccn3)Cc3ccccn3)C=CC1=C2c1c(C)cc(C)cc1C` [ZincBY-4, N-(2-((7-((2-(bis(pyridin-2-ylmethyl)amino)ethyl)(pyridin-2-ylmethyl)amino)-5,5-difluoro-10-mesityl-5H-5λ4,6λ4-dipyrrolo[1,2-c:2′,1′-f][1,3,2]diazaborinin-3-yl)oxy)ethyl)acetamide], the “interaction with BSA (in words)” value is “binds readily to the lipid transport protein” and the “fluorescence turn-on in response to zinc in the presence of BSA” value is recorded as “two-fold increase in fluorescence intensity over its apo form; also recorded: ca. two-fold”. Besides, the polarization (presence of excess BSA) was found to be 0.37. Also, where the note is “without BSA”, the polarization worked out at 0.03. Besides, where the note is “apo”, the “emission maximum in the presence of BSA” value was 590 nm. Also, the “emission maximum in the presence of BSA” value (holo, excited at 480 nm) turned out to be 575 nm.
Consider `COc1ccc2n1[B-](F)(F)[N+]1=C(N(CCN(Cc3ccccn3)Cc3ccccn3)Cc3ccccn3)C=CC1=C2c1c(C)cc(C)cc1C` [ZincBY-1, reference compound], for which the “interaction with BSA (in words)” value is given as “The same interactions can be found” and the “fluorescence turn-on in response to zinc in the presence of BSA” value is “the fluorescence of apo-ZincBY-1 matches that of holo-ZincBY-1; also recorded: no fluorescence turn-on was observed”.
Consider `Cc1cc(C)c(C2=C3C=CC(OCCN)=[N+]3[B-](F)(F)n3c2ccc3N(CCN(Cc2ccccn2)Cc2ccccn2)Cc2ccccn2)c(C)c1` [ZincBY-3, N1-(7-(2-aminoethoxy)-5,5-difluoro-10-mesityl-5H-4λ4,5λ4-dipyrrolo[1,2-c:2′,1′-f][1,3,2]diazaborinin-3-yl)-N1,N2,N2-tris(pyridin-2-ylmethyl)ethane-1,2-diamine], for which the “interaction with BSA (in words)” value was “The same interactions can be found”.
In the case of `Cc1cc(C)c(C2=C3C=CC(OCCN=[N+]=[N-])=[N+]3[B-](F)(F)n3c2ccc3N(CCN(Cc2ccccn2)Cc2ccccn2)Cc2ccccn2)c(C)c1` [ZincBY-2, N1-(7-(2-azidoethoxy)-5,5-difluoro-10-mesityl-5H-4λ4,5λ4-dipyrrolo[1,2-c:2′,1′-f][1,3,2]diazaborinin-3-yl)-N1,N2,N2-tris(pyridin-2-ylmethyl)ethane-1,2-diamine], the “interaction with BSA (in words)” value is recorded as “The same interactions can be found”.
